Peptide text beside a SMILES is read from it. * marks the point of attachment. Dansyl = CN(C)c1cccc2c(S(=O)(=O)*)cccc12
Legend:
[1] = tested on: P100 membrane fraction derived from Caco-2 cells; test: GST-PAX2 peptides relative binding to P100 fractions; settings: 20 μg/ml; binding to plastic subtracted; GST-HAX42 = 1.00
Description: (§1) The peptides and proteins were analyzed by a dansylated peptide ELISA method in which 96 well plates were coated overnight at 4° C. with 100 μl/well coating protein (normally 100 μg/ml P100 membrane fraction) in 0.05M carbonate buffer pH9.6. Nonspecific binding was blocked using 200 μl/well, 2% Marvel/PBS for 2 hours at 37° C. prior to incubation with dansylated peptides. The plates were washed three times with PBS/0.05% Tween 20 and after each subsequent incubation step. […] A buffer blank control was included to ensure that background binding to plastic was not due to the antibodies used in the assay system. […] The plates were then incubated with an anti-mouse λ-HRP conjugated antibody (Southern Biotech 1060-05) at a 1:10,000 dilution in blocking solution, 100 μl/well for 1 hour at room temperature. Plates were developed using 75 μl/well Bionostics TMB substrate and incubated for approximately 10 minutes. The developing reaction was stopped using Bionostics Red Stop solution (25 μl/well), and the optical density of the plates was read at 650 nm.
After subtraction of the GST-peptide binding to plastic from P100 binding values, the binding of GST-PAX2 peptides were represented as a ratio of GST-HAX42 binding to P100, which was given the arbitrary value of 1.00. The following ratios were determined from binding to P100 of GST-peptides at a peptide concentration of 20 μg/ml. Bold denotes positive binding to the P100 membrane fraction.

[2] = tested on: fixed Caco-2 or C2BBe1 cells; test: ELISA of GST fusion proteins on fixed Caco-2 or C2BBe1 cells; assay type: binding; settings: Caco-2
Description: Fixed Caco-2, C2BBe1, and A431 cell plates were prepared by growing cells on tissue culture treated microtiter plates. When cells were confluent, plates were fixed with 10% formaldehyde, washed twice with PBS and stored with 0.5% BSA-PBS at −20° C. […] The standard ELISA procedure was followed at this point.
The standard ELISA procedure was modified as follows. GST proteins were diluted to an appropriate concentration in PBS containing 1% BSA and 0.05% Tween20 (1% BPT), titered and incubated one hour at room temperature. Following five washes an anti-GST monoclonal antibody was added (Sigma, St. Louis Clone GST-2 diluted 1:10,000 in 1% BPT) and incubated one hour. After five more washes goat anti-mouse IgG2b-HRP was added (Southern Biotechnology Associates Inc., Birmingham, Ala., diluted 1:4000 in 1% BPT) and incubated one hour. After five washes plates were developed with TMB peroxidase substrate (Kirkegard and Perry, Gaithersburg, Md.). All data is presented with background binding subtracted.

[3] = tested on: P100 membrane fractions derived from Caco-2 cells; test: Dansylated peptide ELISA on P100: PAX2 and HAX42 peptides relative binding; settings: ratio to ZElan021 (HAX42 = 1.00)
[4] = tested on: P100 membrane fractions derived from Caco-2 cells; test: as above; settings: PAX2 peptides, ratio to ZElan021 (HAX42 = 1.00); for Binding value at 20 μg/ml: first 20 μg/ml column
Description: as §1

[5] = Drug potency, peptide loading and size of coacervated particles; assay type: physicochemical; settings: formulation 1 particles (coacervation), blend
[6] = Description: In particular, phages selected in vitro to each receptor or binding site located in the GIT were amplified in E. coli, PEG-precipitated, resuspended in TBS and the titer of each phage sample was determined by plaquing in E. coli as described above. […] Using the in situ loop model described above, 0.5 ml of preselected phage library solution was injected into the tied-off portion of the duodenum/jejunum. Blood was collected into heparinized tubes from the portal vein at 0, 15, 30, 45 and 60 minutes. A blood sample was taken from the systemic circulation at the end of the experiment. Similarly, the portion of the duodenum/jejunum used for phage injection was taken at the end of the experiment.
Thirty microliters of the collected portal blood (neat and 10^−2, 10^−4, 10^−6 dilutions) was added to 30 μl E. coli K91Kan cells (overnight culture) and incubated at 37° C. for 10 min. Subsequently, 3 ml of top agarose was added and the samples were plated for plaques. One hundred microliters of the collected portal blood was added to 100 μl of E. coli K91Kan. Five milliliters of LB medium was then added and the samples were incubated at 37° C. overnight in a rotating microbial incubator. The E. coli was removed by centrifugation and the amplified phage supernatant samples were either titered directly or were PEG-precipitated, resuspended in TBS and titered. Following titration of the amplified phage, samples containing phage from each set of animals were combined, adjusting the titer of each sample to the same titer, and were plated for plaques on LB agar plates (22 cm^2 square plates). Either 12,000 or 24,000 phage were plated for plaques.
Thirty microliters of the collected systemic blood (neat and 10^−2, 10^−4, 10^−6 dilutions) was added to E. coli K91Kan cells, incubated at 37° C. for 10 min. Three ml of top agarose was then added and the samples were plated for plaques. One hundred microliters of the collected systemic blood was added to 100 μl of E. coli K91Kan, incubated at 37° C. for 10 min. Five milliliters of LB medium was then added and the samples were incubated at 37° C. overnight in a rotating microbial incubator. The E. coli was removed by centrifugation and the amplified phage supernatant samples were either titered directly or were PEG-precipitated, resuspended in TBS and titered. Following titration of the amplified phage, samples containing phage from each set of animals were combined, adjusting the titer of each sample to the same titer, and were plated for plaques on LB agar plates (22 cm^2 square plates). Either 12,000 or 24,000 phage were plated for plaques. The intestinal tissue portion used in each closed loop was excised. […] Alternatively, the tissue (in PBS supplemented with protease inhibitors) was homogenized in an Ultra Thorex homogenizer, washed 3 times in PBS containing protease inhibitors and resuspended in PBS containing protease inhibitors (Int-G samples). In each case, serial dilutions (neat and 10^−2, 10^−4, 10^−6 dilutions) of the tissue homogenate was titered in E. coli.
The phage amplified from the portal blood, systemic blood and intestinal tissue was plated for plaques. […] The filters were air-dried, and the DNA was cross-linked to the filter (UV crosslinking: 2 min, high setting). The filters were incubated in pre-hybridization buffer (6×SSC, 5×Denhardt's solution, 0.1% SDS, 20 μg/ml yeast tRNA) at 40° C.-45° C. for at least 60 min.
Synthetic oligonucleotides, (22-mers), complimentary to regions coding for the receptor or binding sites used to create the preselected phage library, were synthesized (see Table 14 below).
The oligonucleotides (5 pmol) were 5′ end labelled with ^32P-ATP and T4 polynucleotide kinase and approximately 2.5 pmol of labelled oligonucleotide was used in hybridization studies. […] The filters were air-dried and exposed for autoradiography for 15 hours, 24 hours or 72 hours.
Hybridization data for pools from each receptor group of rats was compiled.

| Compound | Value: binding to P100 as a ratio of GST-HAX42 binding [1] | Binding value at 50 μg/ml (Jackson Ab) [3] | Binding value at 50 μg/ml (Southern Ab) [4] | Binding value at 20 μg/ml [4] | Binding value at 50 μg/ml ([4]; first 50 μg/ml column) | Binding value at 50 μg/ml ([4]; second 50 μg/ml column) | also measured |
| --- | --- | --- | --- | --- | --- | --- | --- |
| gst-STPPSREAYSRPYSVDSDSD [GST-104] | 0.01 |  |  |  |  |  |  |
| gst-RGSTGTAGGERSGVLNLHTRDNASGSGFKPWYPSNRGHK [GST-5PAX5] |  |  |  |  |  |  | binding to fixed Caco-2 or C2BBe1 cells relative to GST control [2]: weak to moderate binding |
| glutathione S-transferase [GST, reference compound] | 0.48 |  |  |  |  |  |  |
| gst-SRPYSVDSDSDTNAKHSSHNR [GST-105] | −0.08 |  |  |  |  |  |  |
| CC(C)C[C@H](NC(=O)[C@H](CCCNC(=N)N)NC(=O)[C@H](CCCNC(=N)N)NC(=O)[C@H](CC(N)=O)NC(=O)[C@H](C)NC(=O)[C@H](CO)NC(=O)[C@H](CO)NC(=O)[C@@H](N)CCCCNS(=O)(=O)c1cccc2c(N(C)C)cccc12)C(=O)N[C@@H](CCCNC(=N)N)C(=O)N[C@H](C(=O)N[C@@H](CCCNC(=N)N)C(N)=O)[C@@H](C)O [ZElan075] (H-K(Dansyl)SSANRRLRTR-NH2) |  | 0.47 | 0.32 | 0.13 | 0.52 | 0.38 |  |
| gst-TNAKHSSHN [GST-113] | 0.26 |  |  |  |  |  |  |
| gst-SSHNRRLRTR [GST-114] | 0.17 |  |  |  |  |  |  |
| CC(C)C[C@H](NC(=O)[C@H](CCCNC(=N)N)NC(=O)[C@H](CCCNC(=N)N)NC(=O)[C@H](CC(N)=O)NC(=O)[C@H](Cc1c[nH]cn1)NC(=O)[C@H](CO)NC(=O)[C@H](CO)NC(=O)[C@@H](N)CCCCNS(=O)(=O)c1cccc2c(N(C)C)cccc12)C(=O)N[C@@H](C)C(=O)N[C@H](C(=O)N[C@@H](CCCNC(=N)N)C(N)=O)[C@@H](C)O [ZElan080] (H-K(Dansyl)SSHNRRLATR-NH2) |  | 0.67 | 0.38 | 0.23 | 0.84 | 0.45 |  |
| CC(C)C[C@H](NC(=O)[C@H](CCCNC(=N)N)NC(=O)[C@H](CCCNC(=N)N)NC(=O)[C@H](C)NC(=O)[C@H](Cc1c[nH]cn1)NC(=O)[C@H](CO)NC(=O)[C@H](CO)NC(=O)[C@@H](N)CCCCNS(=O)(=O)c1cccc2c(N(C)C)cccc12)C(=O)N[C@@H](CCCNC(=N)N)C(=O)N[C@H](C(=O)N[C@@H](CCCNC(=N)N)C(N)=O)[C@@H](C)O [ZElan076] (H-K(Dansyl)SSHARRLRTR-NH2) |  | 0.60 | 0.42 | 0.08 | 1.00 | 0.41 |  |
| CC(C)C[C@H](NC(=O)[C@H](CCCNC(=N)N)NC(=O)[C@H](C)NC(=O)[C@H](CC(N)=O)NC(=O)[C@H](Cc1c[nH]cn1)NC(=O)[C@H](CO)NC(=O)[C@H](CO)NC(=O)[C@@H](N)CCCCNS(=O)(=O)c1cccc2c(N(C)C)cccc12)C(=O)N[C@@H](CCCNC(=N)N)C(=O)N[C@H](C(=O)N[C@@H](CCCNC(=N)N)C(N)=O)[C@@H](C)O [ZElan077] (H-K(Dansyl)SSHNARLRTR-NH2) |  | 0.73 | 0.52 | 0.20 | 0.76 | 0.54 |  |
| CC(C)C[C@H](NC(=O)[C@H](CCCNC(=N)N)NC(=O)[C@H](CCCNC(=N)N)NC(=O)[C@H](CC(N)=O)NC(=O)[C@H](Cc1c[nH]cn1)NC(=O)[C@H](C)NC(=O)[C@H](CO)NC(=O)[C@@H](N)CCCCNS(=O)(=O)c1cccc2c(N(C)C)cccc12)C(=O)N[C@@H](CCCNC(=N)N)C(=O)N[C@H](C(=O)N[C@@H](CCCNC(=N)N)C(N)=O)[C@@H](C)O [ZElan074] (H-K(Dansyl)SAHNRRLRTR-NH2) |  | 0.71 | 0.48 | 0.06 | 0.82 | 0.52 |  |
| gst-SPCGGGSWCRFMQGGLFGGRTDGCGAHRNRTSASLEPPSSDY [GST-SNi34] |  |  |  |  |  |  | binding to fixed Caco-2 or C2BBe1 cells relative to GST control [2]: bound |
| gst-RRLRTRSRPN [GST-115] | 0.36 |  |  |  |  |  |  |
| STPPSREAYSRPYSVDSDSDTNAKHSSHNRRLRTRSRPN [PAX2] |  |  |  |  |  |  | Insulin (insulin potency) ([5]; coated with the named peptide): 60.7 mg/g; Peptide (level of peptide coated onto the particles) ([5]; measured by fluorescence): 3.51 µL/mg; presence in the systemic circulation (in words) ([6]; text summary of HPT1 and hPEPT1 pools): found in the portal and systemic circulation; presence in the intestine samples or fractions (in words) ([6]; text summary of the four pools): not found in the intestine samples |

From patent publication US7135457B1, “Random peptides that bind to gastro-intestinal tract (GIT) transport receptors and related methods” (Cytogen Corporation, priority 1997, dated 2006)
